Measured values as given in US6355799B1, “Substituted benzene compounds, process for their preparation, and herbicidal and defoliant compositions containing them” (ISK Americas Incorporated, priority 1997, dated 2002).

Tests used:
Assay type in all cases: in vivo
[1] = test system: redroot pigweed (Amaranthus retroflexus, AMARE); test: Pre-emerge test, greenhouse herbicide activity screening; conditions: pre-emerge, 14 days after application, scale 0-100
Procedure, shortened: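 Plants grown in 10 cm pots of sandy loam mix received acetone-dissolved compounds through a moving flat-fan nozzle. Doses ranged from 15 to 1000 g ai/ha. Pre-emerge pots were seeded one day earlier, post-emerge pots 8–21 days earlier. Fourteen days on, each pot was graded 0–100 for damage.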

[2] = test system: barnyardgrass (Echinochloa crus-galli, ECHCG); test: as above; conditions: pre-emerge, 14 days after application, scale 0-100
Procedure, shortened: (§1)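 Applied at 15–1000 g ai/ha from acetone in 187 l/ha spray volume. Post-emergence applications included 0.25% v/v non-ionic surfactant and reached plants sown 8–21 days before. Pre-emergence applications were incorporated by surface watering. Efficacy or crop damage was rated on a 0–100 scale after 14 days.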

[3] = test system: green foxtail (Setaria viridis, SETVI); test: as above; conditions: pre-emerge, 14 days after application, scale 0-100
Procedure, shortened: as §1

[4] = test system: ivyleaf morningglory (Ipomoea hederacea, IPOHE); test: as above; conditions: pre-emerge, 14 days after application, scale 0-100
Procedure, shortened: as §1

[5] = test system: johnsongrass (Sorghum halepense, SORHA); test: as above; conditions: pre-emerge, 14 days after application, scale 0-100
Procedure, shortened: as §1

[6] = test system: lambsquarters (Chenopodium album, CHEAL); test: as above; conditions: pre-emerge, 14 days after application, scale 0-100
Procedure, shortened: as §1

[7] = test system: large crabgrass (Digitaria sanguinalis, DIGSA); test: as above; conditions: pre-emerge, 14 days after application, scale 0-100
Procedure, shortened: as §1

[8] = test system: sicklepod (Cassia obtusifolia, CASOB); test: as above; conditions: pre-emerge, 14 days after application, scale 0-100
Procedure, shortened: as §1

[9] = test system: velvetleaf (Abutilon theophrasti, ABUTH); test: as above; conditions: pre-emerge, 14 days after application, scale 0-100
Procedure, shortened: as §1

[10] = test system: field corn (Zea mays L., var. Dekalb 535, CORN); test: Pre-emerge test, crop safety; conditions: pre-emerge, 14 days after application, scale 0-100
Procedure, shortened: as §1

[11] = test system: upland rice (Oryza sp., var. Tebonnet, RICE); test: Pre-emerge test, crop safety; conditions: pre-emerge, 14 days after application, scale 0-100
Procedure, shortened: as §1

[12] = test system: barnyardgrass (Echinochloa crus-galli, ECHCG); test: Post-emerge test, greenhouse herbicide activity screening; conditions: post-emerge, 14 days after application, rating scale 0-100
Procedure, shortened: (§2)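 Fourteen days after spraying, crop and weed injury was graded visually from 0, no effect, to 100, every plant dead. Test substances were dissolved in acetone and applied at 15–1000 g ai/ha with a flat-fan nozzle. Application was either pre-emergence, one day after sowing, or post-emergence at the 2–3 leaf stage.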

[13] = test system: green foxtail (Setaria viridis, SETVI); test: as above; conditions: post-emerge, 14 days after application, rating scale 0-100
Procedure, shortened: as §2

[14] = test system: ivyleaf morningglory (Ipomoea hederacea, IPOHE); test: as above; conditions: post-emerge, 14 days after application, rating scale 0-100
Procedure, shortened: as §2

[15] = test system: johnsongrass (Sorghum halepense, SORHA); test: as above; conditions: post-emerge, 14 days after application, rating scale 0-100
Procedure, shortened: as §2

[16] = test system: lambsquarters (Chenopodium album, CHEAL); test: as above; conditions: post-emerge, 14 days after application, rating scale 0-100
Procedure, shortened: as §2

[17] = test system: large crabgrass (Digitaria sanguinalis, DIGSA); test: as above; conditions: post-emerge, 14 days after application, rating scale 0-100
Procedure, shortened: as §2

[18] = test system: redroot pigweed (Amaranthus retroflexus, AMARE); test: as above; conditions: post-emerge, 14 days after application, rating scale 0-100
Procedure, shortened: as §2

[19] = test system: sicklepod (Cassia obtusifolia, CASOB); test: as above; conditions: post-emerge, 14 days after application, rating scale 0-100
Procedure, shortened: as §2

[20] = test system: velvetleaf (Abutilon theophrasti, ABUTH); test: as above; conditions: post-emerge, 14 days after application, rating scale 0-100
Procedure, shortened: as §2

[21] = test system: field corn (Zea mays L., var. Dekalb 535, CORN); test: Post-emerge test, crop safety; conditions: post-emerge, 14 days after application, rating scale 0-100
Procedure, shortened: as §1

[22] = test system: upland rice (Oryza sp., var. Tebonnet, RICE); test: Post-emerge test, crop safety; conditions: post-emerge, 14 days after application, rating scale 0-100
Procedure, shortened: as §1

In the case of `CCOC(=O)C(C)Oc1ccc(-n2c(=O)cc(C(F)(F)F)n(C)c2=O)c(NC(=O)c2ccc3ccccc3c2)c1` (centres unmarked) [2-146], the “phytotoxicity rating AMARE” value ([1]; 63 g ai/ha) was 30, the “phytotoxicity rating AMARE” value ([1]; 250 g ai/ha) was 80 and the “phytotoxicity rating ECHCG” value ([2]; 63 g ai/ha) was 0. For the same compound, the “phytotoxicity rating ECHCG” value ([2]; 250 g ai/ha) was 0, the “phytotoxicity rating SETVI” value ([3]; 63 g ai/ha) was 0 and the “phytotoxicity rating SETVI” value ([3]; 250 g ai/ha) was 0. The “phytotoxicity rating IPOHE” value ([4]; 63 g ai/ha) was 40, the “phytotoxicity rating IPOHE” value ([4]; 250 g ai/ha) was 20 and the “phytotoxicity rating SORHA” value ([5]; 63 g ai/ha) was 0. The “phytotoxicity rating SORHA” value ([5]; 250 g ai/ha) was 0, the “phytotoxicity rating CHEAL” value ([6]; 63 g ai/ha) was 90 and the “phytotoxicity rating CHEAL” value ([6]; 250 g ai/ha) was 100. For the same compound, the “phytotoxicity rating DIGSA” value ([7]; 63 g ai/ha) was 0, the “phytotoxicity rating DIGSA” value ([7]; 250 g ai/ha) was 0 and the “phytotoxicity rating CASOB” value ([8]; 63 g ai/ha) was 20. For the same compound, the “phytotoxicity rating CASOB” value ([8]; 250 g ai/ha) was 0, the “phytotoxicity rating ABUTH” value ([9]; 63 g ai/ha) was 70 and the “phytotoxicity rating ABUTH” value ([9]; 250 g ai/ha) was 10. The “phytotoxicity rating CORN (crop damage)” value ([10]; 63 g ai/ha) was 0, the “phytotoxicity rating CORN (crop damage)” value ([10]; 250 g ai/ha) was 0 and the “phytotoxicity rating RICE (crop damage)” value ([11]; 63 g ai/ha) was 0. The “phytotoxicity rating RICE (crop damage)” value ([11]; 250 g ai/ha) was 0, the ECHCG phytotoxicity rating ([12]; 63 g ai/ha) was 0 and the ECHCG phytotoxicity rating ([12]; 250 g ai/ha) was 0. For the same compound, the SETVI phytotoxicity rating ([13]; 63 g ai/ha) was 0, the SETVI phytotoxicity rating ([13]; 250 g ai/ha) was 0 and the IPOHE phytotoxicity rating ([14]; 63 g ai/ha) was 40. It also gave an IPOHE phytotoxicity rating ([14]; 250 g ai/ha) of 50, an SORHA phytotoxicity rating ([15]; 63 g ai/ha) of 0 and an SORHA phytotoxicity rating ([15]; 250 g ai/ha) of 0. The CHEAL phytotoxicity rating ([16]; 63 g ai/ha) was 30, the CHEAL phytotoxicity rating ([16]; 250 g ai/ha) was 40 and the DIGSA phytotoxicity rating ([17]; 63 g ai/ha) was 0. The DIGSA phytotoxicity rating ([17]; 250 g ai/ha) was 0, the AMARE phytotoxicity rating ([18]; 63 g ai/ha) was 30 and the AMARE phytotoxicity rating ([18]; 250 g ai/ha) was 30. It also gave a CASOB phytotoxicity rating ([19]; 63 g ai/ha) of 20, a CASOB phytotoxicity rating ([19]; 250 g ai/ha) of 50 and an ABUTH phytotoxicity rating ([20]; 63 g ai/ha) of 70. The ABUTH phytotoxicity rating ([20]; 250 g ai/ha) was 75, the “CORN phytotoxicity rating (crop damage)” value ([21]; 63 g ai/ha) was 10 and the “CORN phytotoxicity rating (crop damage)” value ([21]; 250 g ai/ha) was 5. The “RICE phytotoxicity rating (crop damage)” value ([22]; 63 g ai/ha) was 10 and the “RICE phytotoxicity rating (crop damage)” value ([22]; 250 g ai/ha) was 10.
